# ChEMBL document CHEMBL3425400, “Is RK-682 a promiscuous enzyme inhibitor? Synthesis and in vitro evaluation of protein tyrosine phosphatase inhibition of racemic RK-682 and analogues” (Eur J Med Chem, 2015)
# Calls of active or inactive are those of the source. No cut-off for these calls is given here.
# What was measured:
# [1] = target: T1, Low molecular weight phosphotyrosine protein phosphatase (Homo sapiens, UniProt P24666); assay: Inhibition of full length 6-His-N-terminal tagged human LMW-PTP expressed in Escherichia coli BL21 (DE3) cells assessed as pNP formation using pNPP as substrate incubated for 15 mins prior to substrate addition by plate reader analysis
# T1 sequence (P24666 whole entry): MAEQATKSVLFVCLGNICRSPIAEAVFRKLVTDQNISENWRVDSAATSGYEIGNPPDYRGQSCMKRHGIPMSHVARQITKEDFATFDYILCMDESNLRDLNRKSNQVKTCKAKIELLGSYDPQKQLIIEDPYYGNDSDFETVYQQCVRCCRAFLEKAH
# [2] = target: T2, M-phase inducer phosphatase 2 (Homo sapiens, UniProt P30305); assay: Inhibition of 6-His-N-terminal tagged human CDC-25B isoform 3 catalytic domain expressed in Escherichia coli BL21 (DE3) cells assessed as pNP formation using pNPP as substrate incubated for 15 mins prior to substrate addition by plate reader analysis
# T2 sequence (P30305 whole entry): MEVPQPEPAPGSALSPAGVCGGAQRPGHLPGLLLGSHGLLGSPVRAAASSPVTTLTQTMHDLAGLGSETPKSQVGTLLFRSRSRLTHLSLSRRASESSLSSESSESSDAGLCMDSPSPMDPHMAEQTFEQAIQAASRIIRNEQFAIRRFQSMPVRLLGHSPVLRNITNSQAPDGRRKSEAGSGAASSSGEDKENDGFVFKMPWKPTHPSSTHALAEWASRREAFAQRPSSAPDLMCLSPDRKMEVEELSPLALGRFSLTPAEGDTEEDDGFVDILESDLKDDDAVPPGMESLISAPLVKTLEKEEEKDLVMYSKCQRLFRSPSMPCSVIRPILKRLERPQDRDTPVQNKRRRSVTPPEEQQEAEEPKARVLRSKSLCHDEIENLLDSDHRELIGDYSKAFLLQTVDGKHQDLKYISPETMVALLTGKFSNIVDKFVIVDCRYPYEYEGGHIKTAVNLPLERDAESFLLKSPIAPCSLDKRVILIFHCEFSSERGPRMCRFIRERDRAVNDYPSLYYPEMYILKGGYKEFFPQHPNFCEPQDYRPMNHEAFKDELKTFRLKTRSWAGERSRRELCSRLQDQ
# [3] = target: T3, Tyrosine-protein phosphatase non-receptor type 1 (Homo sapiens, UniProt P18031); assay: Inhibition of 6-His-N-terminal tagged human PTP1B expressed in Escherichia coli BL21 (DE3) cells assessed as pNP formation using pNPP as substrate incubated for 15 mins prior to substrate addition by plate reader analysis
# T3 sequence (P18031 whole entry): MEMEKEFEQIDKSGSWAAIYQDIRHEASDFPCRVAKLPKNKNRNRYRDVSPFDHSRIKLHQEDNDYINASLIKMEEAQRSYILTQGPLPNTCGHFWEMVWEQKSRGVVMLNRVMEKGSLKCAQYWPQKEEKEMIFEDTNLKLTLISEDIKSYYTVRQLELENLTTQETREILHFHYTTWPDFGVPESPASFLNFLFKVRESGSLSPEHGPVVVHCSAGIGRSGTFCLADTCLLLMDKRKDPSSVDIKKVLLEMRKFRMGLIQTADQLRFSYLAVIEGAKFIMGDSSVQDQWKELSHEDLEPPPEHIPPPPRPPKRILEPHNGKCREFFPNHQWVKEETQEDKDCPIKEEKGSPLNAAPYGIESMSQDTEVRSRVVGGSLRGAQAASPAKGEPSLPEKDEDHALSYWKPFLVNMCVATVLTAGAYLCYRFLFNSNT
# [4] = target: T4, Low molecular weight phosphotyrosine protein phosphatase (Homo sapiens) (UniProt P24666); assay: Mixed type of inhibition of full length 6-His-N-terminal tagged human LMW-PTP expressed in Escherichia coli BL21 (DE3) cells using pNPP as substrate by Lineweaver-Burk plot analysis
# T4 sequence (whole entry): T1 sequence (P24666 whole entry)
# [5] = target: T5, Tyrosine-protein phosphatase non-receptor type 1 (Homo sapiens) (UniProt P18031); assay: Mixed type of inhibition of 6-His-N-terminal tagged human PTP1B expressed in Escherichia coli BL21 (DE3) cells using pNPP as substrate by Lineweaver-Burk plot analysis
# T5 sequence (whole entry): T3 sequence (P18031 whole entry)
# [6] = target: T5, Tyrosine-protein phosphatase non-receptor type 1 (Homo sapiens); assay: Time-dependent inhibition of 6-His-N-terminal tagged human PTP1B expressed in Escherichia coli BL21 (DE3) cells using pNPP as substrate treated with compound prior to substrate addition by plate reader analysis; settings: TDE = time-dependent effect
# [7] = Retardation factor of the compound using CHCl3:MeOH (9:1) as solvent system by column chromatography; assay type: physicochemical
# [8] = Retardation factor of the compound using Hexanes:AcOEt (2:1) as solvent system by column chromatography; assay type: physicochemical
# [9] = Retardation factor of the compound using Hexanes:AcOEt (7:3) as solvent system by column chromatography; assay type: physicochemical
# [10] = target: T4, Low molecular weight phosphotyrosine protein phosphatase (Homo sapiens); assay: Inhibition of full length 6-His-N-terminal tagged human LMW-PTP expressed in Escherichia coli BL21 (DE3) cells assessed as pNP formation using pNPP as substrate at 100 uM incubated for 15 mins prior to substrate addition by plate reader analysis
# [11] = target: T6, M-phase inducer phosphatase 2 (Homo sapiens) (UniProt P30305); assay: Inhibition of 6-His-N-terminal tagged human CDC-25B isoform 3 catalytic domain expressed in Escherichia coli BL21 (DE3) cells assessed as pNP formation using pNPP as substrate at 100 uM incubated for 15 mins prior to substrate addition by plate reader analysis
# T6 sequence (whole entry): T2 sequence (P30305 whole entry)
# [12] = Retardation factor of the compound using Hexanes:AcOEt (1:1) as solvent system by column chromatography; assay type: physicochemical
# [13] = target: T5, Tyrosine-protein phosphatase non-receptor type 1 (Homo sapiens); assay: Binding affinity to 6-His-N-terminal tagged human PTP1B expressed in Escherichia coli BL21 (DE3) cells after 3 hrs by tryptophan emission monitoring analysis
# [14] = target: T4, Low molecular weight phosphotyrosine protein phosphatase (Homo sapiens); assay: Binding affinity to full length 6-His-N-terminal tagged human LMW-PTP expressed in Escherichia coli BL21 (DE3) cells after 3 hrs by tryptophan emission monitoring analysis
# Albumin = Albumin (Bos taurus, UniProt P02769); assay: Binding affinity to bovine serum albumin after 3 hrs by tryptophan emission monitoring analysis; settings: cattle
# Albumin, sequence (P02769 whole entry): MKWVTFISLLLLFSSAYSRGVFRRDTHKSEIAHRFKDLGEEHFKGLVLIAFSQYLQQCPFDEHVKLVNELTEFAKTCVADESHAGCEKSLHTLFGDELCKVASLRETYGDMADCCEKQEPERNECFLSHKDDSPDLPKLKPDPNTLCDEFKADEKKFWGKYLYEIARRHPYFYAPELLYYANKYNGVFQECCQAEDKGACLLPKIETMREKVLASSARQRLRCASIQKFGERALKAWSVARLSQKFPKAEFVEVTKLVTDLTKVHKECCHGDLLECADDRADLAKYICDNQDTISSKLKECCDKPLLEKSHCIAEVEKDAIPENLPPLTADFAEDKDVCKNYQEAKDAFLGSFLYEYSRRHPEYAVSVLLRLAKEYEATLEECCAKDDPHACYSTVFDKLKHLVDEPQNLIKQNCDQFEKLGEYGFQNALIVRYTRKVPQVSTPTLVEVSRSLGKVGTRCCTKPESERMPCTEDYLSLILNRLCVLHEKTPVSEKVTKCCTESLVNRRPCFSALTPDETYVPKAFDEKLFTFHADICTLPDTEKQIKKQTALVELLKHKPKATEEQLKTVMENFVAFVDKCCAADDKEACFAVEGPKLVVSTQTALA
# [15] = target: Lysozyme C (Gallus gallus) (UniProt P00698); assay: Binding affinity to hen egg lysozyme after 3 hrs by tryptophan emission monitoring analysis
# Lysozyme C (Gallus gallus), sequence (P00698 whole entry): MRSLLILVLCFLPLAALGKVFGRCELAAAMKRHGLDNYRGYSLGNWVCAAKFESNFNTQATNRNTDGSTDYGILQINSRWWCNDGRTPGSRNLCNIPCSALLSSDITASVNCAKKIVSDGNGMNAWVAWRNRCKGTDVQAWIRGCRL
# [16] = target: T5, Tyrosine-protein phosphatase non-receptor type 1 (Homo sapiens); assay: Binding affinity to 6-His-N-terminal tagged human PTP1B expressed in Escherichia coli BL21 (DE3) cells assessed as protein aggregate formation up to 100 uM after 1 hr by native PAGE analysis
# [17] = target: T4, Low molecular weight phosphotyrosine protein phosphatase (Homo sapiens); assay: Binding affinity to full length 6-His-N-terminal tagged human LMW-PTP expressed in Escherichia coli BL21 (DE3) cells assessed as protein aggregate formation up to 100 uM after 1 hr by native PAGE analysis
# [18] = target: T5, Tyrosine-protein phosphatase non-receptor type 1 (Homo sapiens); assay: Inhibition of 6-His-N-terminal tagged human PTP1B expressed in Escherichia coli BL21 (DE3) cells assessed as pNP formation using pNPP as substrate incubated for 15 mins prior to substrate addition by plate reader analysis in presence of 25 mM ammonium sulfate
# [19] = target: T4, Low molecular weight phosphotyrosine protein phosphatase (Homo sapiens); assay: Inhibition of full length 6-His-N-terminal tagged human LMW-PTP expressed in Escherichia coli BL21 (DE3) cells assessed as pNP formation using pNPP as substrate at 100 uM by plate reader analysis in presence of 50 mM MgCl2
# [20] = target: T6, M-phase inducer phosphatase 2 (Homo sapiens); assay: Inhibition of 6-His-N-terminal tagged human CDC-25B isoform 3 catalytic domain expressed in Escherichia coli BL21 (DE3) cells assessed as pNP formation using pNPP as substrate at 100 uM by plate reader analysis in presence of 50 mM MgCl2
# [21] = target: T5, Tyrosine-protein phosphatase non-receptor type 1 (Homo sapiens); settings: BL21-DE3, 5 uM
# Description: Reversible inhibition of 6-His-N-terminal tagged human PTP1B expressed in Escherichia coli BL21 (DE3) cells using pNPP as substrate at 5 uM incubated for 15 mins prior to substrate addition measured after drug wash out by plate reader analysis
# [22] = Retardation factor of the compound using Hexanes:AcOEt (1:2) as solvent system by column chromatography; assay type: physicochemical
Structure (SMILES),IC50 [1] [µM],IC50 [2] [µM],IC50 [3] [µM],other results
CCCCCCCCCCCCCCCC(=O)C1=C(O)CC(CO)OC1=O (stereo unspecified),> 100,13.6,15.6,inhibition [4]: Active; inhibition [5]: Active; inhibition [6]: tde; Rf [7]: 0.5
CCCCCCCCCCCCCCCC(=O)C1=C(O)OC(CC)(CC)OC1=O,> 100,4.6,1.1,Rf [8]: 0.59
CCCCCCCCCCCCCCCC(=O)C1=C(O)CC(COCc2ccccc2)OC1=O (stereo unspecified),> 100,7.2,5.6,Rf [9]: 0.71
CCCCCCCCCC(=O)C1=C(O)OC(C)(C)OC1=O,> 100,> 100,28.7,Rf [8]: 0.49
CC(=O)C1=C(O)OC(C)(C)OC1=O,–,–,> 100,inhibition [10]: inactive; inhibition [11]: inactive
CCCCCCCCCCCCCCCC(=O)OC1=CC(=O)OC(COCc2ccccc2)C1 (stereo unspecified),> 100,> 100,8.2,Activity [13]: Active; Activity [14]: Active; Activity (Albumin): Active; Activity [15]: Active; Activity [16]: inactive; Activity [17]: inactive; Rf [9]: 0.72
CCCCCCCCCCCCCCCC(=O)C1=C(O)OC(C)(C)OC1=O,22,13.7,1,inhibition [4]: Active; inhibition [5]: Active; inhibition [6]: tde; inhibition [18]: inactive; Rf [12]: 0.5
CC(C)C(=O)C1=C(O)OC(C)(C)OC1=O,–,> 100,72.7,inhibition [10]: inactive; Rf [22]: 0.5
CCCC(=O)C1=C(O)OC(C)(C)OC1=O,–,–,> 100,inhibition [10]: inactive; inhibition [11]: inactive; Rf [22]: 0.47
CCCCCCCCCCCCCCCC(=O)C1=C(O)OC2(CCCC2)OC1=O,9.6,7,0.8,Rf [8]: 0.59

# More lines, main results first:
IC50 [1] [µM],IC50 [2] [µM],IC50 [3] [µM],Structure (SMILES),other results
3.8,5.9,0.3,CCCCCCCCCCCCCCCC(=O)C1=C(O)C(COC(=O)c2ccc(C(=O)c3ccccc3)cc2)OC1=O (stereo unspecified),–
29.3,5.5,0.8,CCCCCCCCCCCCCCCC(=O)C1=C(O)OC(C)(CC)OC1=O (stereo unspecified),Rf [8]: 0.42
10.1,6.3,0.5,CCCCCCCCCCCCCCCC(=O)C1=C(O)C(COC(=O)c2ccccc2C(=O)c2ccccc2)OC1=O (stereo unspecified),–
5.3,6.5,0.6,CCCCCCCCCCCCCCCCCC(=O)C1=C(O)OC(C)(C)OC1=O,Rf [12]: 0.51
8.6,12.4,0.7,CCCCCCCCCCCCCCCC(=O)C1=C(O)C(CO)OC1=O (racemic),inhibition [19]: inactive; inhibition [20]: inactive; inhibition [4]: Active; inhibition [5]: Active; inhibition [6]: tde; inhibition [18]: inactive; Activity [13]: Active; Activity [14]: Active; Activity (Albumin): Active; Activity [15]: Active; Activity [16]: Active; Activity [17]: Active; inhibition [21]: Active
3.3,8,0.4,CCCCCCCCCCCCCCCC(=O)C1=C(O)C(COS(C)(=O)=O)OC1=O (stereo unspecified),–
2.5,7.4,0.4,C=C1OC(=O)C(C(=O)CCCCCCCCCCCCCCC)=C1O,–
10,10.8,0.4,CCCCCCCCCCCCCCCC(=O)C1=C(O)C(COC(C)=O)OC1=O (stereo unspecified),–
